Records with an inconclusive call do not appear.
System: Lewis lung carcinoma i.m., BDF1 mice, T/C %
Test: NCI In Vivo Anticancer Drug Screen. Data for tumor model Lewis Lung Carcinoma (intramuscular) in B6D2F1 (BDF1) mice
Method in brief: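 Tumour-bearing mice were dosed with compound, and either their survival or their tumour size was measured. Results were expressed relative to vehicle-treated controls as T/C.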

## Nc1ncnc2c1ncn2C1OC(CO)C(O)C1O (stereo not given)
endpoint: mean tumor weight (est.), dose: 200.0 mg/kg/injection, schedule: Q01DX011 (ip), vehicle: saline, higher = larger tumour
  T/C: 65 % of control
endpoint: mean tumor weight (est.), dose: 400.0 mg/kg/injection, schedule: Q01DX011 (ip), vehicle: saline, higher = larger tumour
  T/C: 63 % of control
endpoint: mean tumor weight (est.), dose: 600.0 mg/kg/injection, schedule: Q01DX011 (ip), vehicle: saline, higher = larger tumour
  T/C: 15 % of control
endpoint: median survival time, dose: 200.0 mg/kg/injection, schedule: Q01DX011 (ip), vehicle: saline, higher = longer survival
  T/C: 119 % of control
endpoint: median survival time, dose: 400.0 mg/kg/injection, schedule: Q01DX011 (ip), vehicle: saline, higher = longer survival
  T/C: 86 % of control

## O=NN(CCCl)C(=O)NCC1CCC(CNC(=O)N(CCCl)N=O)CC1 (stereo not given)
endpoint: median survival time, dose: 65.0 mg/kg/injection, schedule: Q07DX003 (ip), vehicle: Klucel (hydroxypropylcellulose) (HPC), higher = longer survival
  T/C: 116 % of control
endpoint: median survival time, dose: 108.0 mg/kg/injection, schedule: Q07DX003 (ip), vehicle: Klucel (hydroxypropylcellulose) (HPC), higher = longer survival
  T/C: 106 % of control
endpoint: median survival time, dose: 180.0 mg/kg/injection, schedule: Q07DX003 (ip), vehicle: Klucel (hydroxypropylcellulose) (HPC), higher = longer survival
  T/C: 114 % of control
endpoint: median survival time, dose: 300.0 mg/kg/injection, schedule: Q07DX003 (ip), vehicle: Klucel (hydroxypropylcellulose) (HPC), higher = longer survival
  T/C: 106 % of control
endpoint: median survival time, dose: 500.0 mg/kg/injection, schedule: Q07DX003 (ip), vehicle: Klucel (hydroxypropylcellulose) (HPC), higher = longer survival
  T/C: 114 % of control
